# Experimental data from paper PMC7463913, “The Interaction of Fluorinated Glycomimetics with DC-SIGN: Multiple Binding Modes Disentangled by the Combination of NMR Methods and MD Simulations” (Pharmaceuticals, 2020).
# How the values were obtained:
# DC-SIGN (ECD) = target: T1, DC-SIGN (ECD) (Homo sapiens, UniProt Q9NNX6); assay: competitive 19F-R2 filtered NMR experiments (spy molecule 6-F-ManαOMe); type: binding; settings: for Ki: non-linear least squares fitting, [6-F-ManαOMe] 400 µM, [DC-SIGN (CRDs)] 10 µM, 298 K, pH 8.0; for weaker ligand relative to best binders (1b, 1c, 1d): fold loss of affinity from KI values
# T1 construct: DC-SIGN full extracellular domain (ECD, residues 70-404, Thermo Fischer Scientific); made in house
# T1 sequence (Q9NNX6 70-404): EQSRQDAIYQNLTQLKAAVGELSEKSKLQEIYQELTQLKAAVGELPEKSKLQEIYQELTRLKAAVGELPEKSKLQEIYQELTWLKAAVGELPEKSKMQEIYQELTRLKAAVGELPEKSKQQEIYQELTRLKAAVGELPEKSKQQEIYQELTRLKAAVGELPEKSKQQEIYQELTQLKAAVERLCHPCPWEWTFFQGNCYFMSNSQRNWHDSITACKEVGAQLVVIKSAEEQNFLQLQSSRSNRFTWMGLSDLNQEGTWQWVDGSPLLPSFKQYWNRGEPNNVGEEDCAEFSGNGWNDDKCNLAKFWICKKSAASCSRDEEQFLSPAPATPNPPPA
# Excerpt: In order to gain insights into the effects that the different fluorination patterns may have in the binding event, the affinities of 1b, the natural analogue of 1, as well as 1c and 1d, two partially fluorinated trisaccharides, were also estimated. (Table 2, Figure S1).
# For KD estimation of 6-deoxy-6-F-Man (the spy-molecule), the free evolution delay was set to an optimized value τ=1 ms , after using relaxation dispersion experiments to assure a negligible chemical exchange contribution to R2,obs (Figure S1a). The KI of 1, 1b-d, 2, and 3 with DC-SIGN (ECD) was determined by titration experiments in a competitive fashion. Increasing amounts of the competitor molecules (compounds 1, 1b-d, 2, and 3) were added to a solution mixture of the spy molecule and the protein in each case, calculating the R2,obs of the spy molecule at each competitor concentration while the ratio [Spy-molecule]/[Protein] is fixed (40:1) (Figure S1c).
# 19F-R2 filtered experiments
# The KD of compounds 1, 1b-d, 2 and 3 was estimated applying a 19F-R2 filtered approach. 6-F-ManαOMe, which weakly binds to DC-SIGN, was selected as the spy molecule. Relaxation rates R2 were determined employing a CPMG pulse sequence, by fitting the observed 19F signal intensity to the exponential decay curve:
# ܫ(ݐ) = ܫ଴݁ି௧ோమ = ܫ଴݁ି௡ଶఛோమ (1) where ܫ(ݐ) refers to intensity at time ݐ, ܫ଴ is intensity at ݐ = 0, and ܴଶ is the transversal relaxation rate (ܴଶ = 1/ܶଶ).
# In the limit of fast-exchange where the exchange contribution to the observed transversal relaxation rate ܴଶ,௢௕௦ is insignificant (Figure S1, a)), the following equations apply:
# ܴଶ,௢௕௦ = ܴଶ,௙ + ൫ܴଶ,௕ − ܴଶ,௙൯݌௕ (2)
# [ܲ]் + [ܮ]் + ܭ஽ − ඥ([ܲ]் + [ܮ]் + ܭ஽)ଶ − 4[ܲ]்[ܮ]் (3) where [ܲ]் and [ܮ]் are the total protein and ligand concentrarion respectively, [ܴ]ଶ,௙ and [ܴ]ଶ,௕ are the relaxation rates in the free and bound states, ݌௕ is the fraction of bound ligand and ܭ஽ the dissociation constant of the protein-ligand complex. [ܴ]ଶ,௙ of 6-F-ManαOMe was measured in absence of the lectin, and Equation 2 was used to estimate ܭ஽and [ܴ]ଶ,௕ for the […]
# Then, ܭூ of compounds 1, 1b-d, 2 and 3 was measured in a competitive manner. ܴଶ,௢௕௦ of 6-F-ManαOMe (spy molecule) in solution with DC-SIGN ECD was monitored at 5 different competitor concentrations ([ܫ]) in each case with a fixed [ܲ]்/[ܮ]் ratio (Figure S1, c)), to derive ܭூ by fitting to Equation 2 with ݌௕ as defined in Equations (4) and (5) (Table 2):
# ݌௕ = 3ܭ + 2 cos൫ߠൗ ൯ √ܽଶ − 3ܾ − ܽ (4)
# ߠ = cos ൬ ଶඥ(௔మିଷ௕)య ൰, ܽ = ܭ஽ + ܭூ + [ܮ]் + [ܫ]் − [ܲ]், ܾ = ([ܫ]் − [ܲ]்)ܭ஽ + ([ܮ]் − [ܲ]்)ܭ஽ + ܭூܭ஽, ܿ = −ܭூܭ஽[ܲ]்
# Figure S1. 19F-R2 filtered experiments. a) Relaxation dispersion experiment for 6-F-ManαOMe (the spy molecule). R2,obs of the 19F nucleus is measured for different values of ωCPMG. Ligand and protein sample concentrations were: [6-F-ManαOMe] = 400 µM, [DC-SIGN (CRDs)] = 10 µM (counting concentration of CRDs, i.e, 4 CRDs per DC-SIGN ECD tetramer). For ωCPMG > 1000 s-1, there is virtually negligible exchange contribution to R2. Therefore, all the subsequent R2 filtered experiments were carried out with τCPMG = 1/ωCPMG = 1 ms. b) KD determination of 6-F-ManαOMe with DC-SIGN. R2,obs was measured for increasing amounts of [6-F-ManαOMe]/[DC-SIGN (CRDs)] (blue dots). KD and R2,b were obtained from fitting to Equation 2, which is valid in the fast-exchange regime (Rex = 0) [39a]. The predicted values at each [6-F-ManαOMe]/[DC-SIGN (CRDs)] are shown as red stars for comparison c) Titration curves showing the variation in 19F-R2,obs of the spy molecule 6-F-ManαOMe, when increasing amounts of the competitors (I) 1, 1b-d, 2 and 3 are added to a mixture [6-F-ManαOMe] = 400 µM, [DC-SIGN (CRDs)] = 10 µM. […]
# DC-SIGN (ECD tetramer) = target: T2, DC-SIGN (ECD tetramer) (Homo sapiens, UniProt Q9NNX6); assay: 2D-STD-TOCSYreF NMR experiments (binding epitope); settings: for total relative STD per Man ring: normalized to the global observed STD; for % STD (normalized): normalized to largest STD in each molecule
# T2 construct: DC-SIGN full extracellular domain (ECD, residues 70-404, Thermo Fischer Scientific); made in house
# T2 sequence (Q9NNX6 70-404): T1 sequence (Q9NNX6 70-404)
# Excerpt: The interaction between DC-SIGN and the three Man-based 2-deoxy-fluoro oligosaccharides (Figure 1) was first analyzed using 2D-STD-TOCSYreF experiments (Figure 2). A long TOCSY mixing time (128 ms) was used to extend the polarization to all protons within the same spin system for each Man ring. The enhanced resolution of the 2D-TOCSYreF allowed the assignment of most of the STD NMR cross peaks with high reliability for the three fluorinated compounds (Figure 2 and Table 1). Generally speaking, the inherent loss of sensitivity due to the heteronuclear reF transfer in the 2D-STD-TOCSYreF experiments is overcompensated by the gained spectral dispersion.
# Figure 2 2D-TOCSYreF off-resonance spectrum (red) and 2D-STD-TOCSYreF peaks (blue) obtained for 1 (top panel), 2 (central panel) and 3 (bottom panel) in the presence of DC-SIGN. The ^19F NMR frequencies are given in the abscissa axis and the ^1H NMR frequencies in the ordinate axis. The STD cross peaks are shifted to high field in the ^19F frequency to facilitate visual inspection. Every blue cross peak corresponds to the STD NMR intensity of the particular ^1H NMR nucleus in a given monosaccharide, which is encoded by the ^19F frequency. The ligand concentration was 1.4 mM in each case, with 9.14 μM of DC-SIGN tetramer, thus containing four carbohydrate recognition domains (CRD) (ligand/protein-CRD ratio is 38:1). The on-resonance irradiation was set to 0.85 ppm, with a saturation time of 2 s. The relative STD values, shown by colored circles, are obtained from the ratio between the corresponding peaks in the 2D STD-TOCSY-reF and 2D-TOCSYreF off-resonance spectra, and normalized to the largest STD in each molecule. The circles connected by a colored thin line correspond to overlapped signals in the spectrum, so that the STD intensity is shown as ‘spread’ between the corresponding ^1H nuclei (meaning each of these protons may contribute or not to the total STD observed). In this case, the added STD intensity is given. The total relative STD per Man ring for each molecule is also specified with a colored tag, using the same color code as the circles. TEXT PRINTED IN THE PICTURE: 1: % STD (Man II): 44 %; % STD (Man III): 9 %; % STD (Man I): 47 % | 2: % STD (Man III): 11 %; % STD (Man I): 89 % | 3: % STD (Man II): 70 %; % STD (Man III): 30 % DOUBTS OF THE COPYIST ABOUT THIS PICTURE: The percent tags are matched to the Man I/II/III rings by position and colour only. The measure '% STD' is printed only at the colour bar. / The percent tags are relative STD-NMR values per sugar ring (binding epitope), so it is uncertain whether they count as a result or belong to the excluded spectra.
# Samples for the 2D STD-TOCSY-reF contained 9.14 µM ECD (tetramer) and 153 eq. of ligand (1.4 mM, the ratio ligand/protein (CRD) is 38:1) in each case. The 2D STD-TOCSY-reF setup consists on a proton saturation transfer scheme (^1Hprotein→^1Hligand-STD) with subsequent evolution through JHH couplings (TOCSY), to finally refocus the STD-edited information in the ^19F dimension (reF). As STD parameters, selective saturation was applied for 2 s using 90º PC9 pulses of 10 ms length, with on-resonance saturation set at 0.85 ppm and off-resonance at 60 ppm. The TOCSY mixing time used was 128 ms, and the corresponding JHF evolution and refocusing delays in the reF module were Δ^H = 10.4 ms and Δ^F = 6 ms, respectively. The relative saturation values (%) were calculated from the ratio between peaks in the 2D STD-TOCSY-reF spectrum and the corresponding ones in the off-resonance TOCSY-reF spectrum.
Compound,Ki (DC-SIGN (ECD)),loss in affinity versus the trisaccharide 1 (DC-SIGN (ECD); fluorinated disaccharides versus 1),"weaker ligand relative to best binders (1b, 1c, 1d) (DC-SIGN (ECD))",total relative STD per Man ring (DC-SIGN (ECD tetramer); Man II ring),total relative STD per Man ring (DC-SIGN (ECD tetramer); Man III ring),% STD (normalized) (DC-SIGN (ECD tetramer); overlapped protons ManII-3/6),% STD (normalized) (DC-SIGN (ECD tetramer); overlapped protons ManII-4/5),% STD (normalized) (DC-SIGN (ECD tetramer); overlapped protons ManIII-3/4/5/6),% STD (normalized) (DC-SIGN (ECD tetramer); proton ManII-1),% STD (normalized) (DC-SIGN (ECD tetramer); proton ManII-2),% STD (normalized) (DC-SIGN (ECD tetramer); proton ManIII-1),% STD (normalized) (DC-SIGN (ECD tetramer); proton ManIII-2),binding free energy difference (DC-SIGN (ECD); corresponding to the variation in affinity of 1 versus 1b),variation in binding affinity (DC-SIGN (ECD); trifluorinated 1 versus 1b),total relative STD per Man ring (DC-SIGN (ECD tetramer); Man I ring),% STD (normalized) (DC-SIGN (ECD tetramer); overlapped protons ManIII-1/2),"% STD (normalized) (DC-SIGN (ECD tetramer); proton ManI-1, ligand 1.4 mM, 9.14 µM tetramer, 2 s saturation at 0.85 ppm)",% STD (normalized) (DC-SIGN (ECD tetramer); proton ManI-2),% STD (normalized) (DC-SIGN (ECD tetramer); proton ManI-3)
CO[C@H]1O[C@H](CO[C@H]2O[C@H](CO)[C@@H](O)[C@H](O)[C@@H]2O)[C@@H](O)[C@H](O[C@H]2O[C@H](CO)[C@@H](O)[C@H](O)[C@@H]2F)[C@@H]1O [1d],1100 µM,–,–,–,–,–,–,–,–,–,–,–,–,–,–,–,–,–,–
CO[C@H]1O[C@H](CO[C@H]2O[C@H](CO)[C@@H](O)[C@H](O)[C@@H]2F)[C@@H](O)[C@H](O)[C@@H]1F [compound 3],4000 µM,ca. two-fold,four-fold weaker,70%,30%,86%,100%,47%,31%,45%,33%,31%,–,–,–,–,–,–,–
CO[C@H]1O[C@H](CO[C@H]2O[C@H](CO)[C@@H](O)[C@H](O)[C@@H]2F)[C@@H](O)[C@H](O[C@H]2O[C@H](CO)[C@@H](O)[C@H](O)[C@@H]2F)[C@@H]1F [compound 1],2500 µM,–,two-fold weaker,44%,9%,47%,52%,–,19%,31%,–,–,ca. 1 kcal/mol,2.5 fold,47%,31%,16%,42%,100%
